Laboratory results taken from the supplement of paper PMC5908809.

Tests used:
[1] = system: normal NK cells expanded with K562-aAPC; assay: drug sensitivity score (DSS) (DSS units); higher = more sensitive; extreme values may be limits of the assay; conditions: 72 h; IL-2 2.5 ng/mL
Procedure: (§1)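 Drug sensitivity and resistance testing on K562-aAPC-expanded normal NK cells: 5 concentrations (10-fold steps over a 10,000-fold range), 72 h at 37 °C, viability by CellTiter-Glo normalised to DMSO and benzethonium chloride controls; DSS from the fitted curve.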

[2] = system: normal primary NK cells, pool 1 (3 donors), resting (IL-2 0 ng/mL); assay: percent inhibition of viability; higher = more inhibition; conditions: 72 h
[3] = system: normal primary NK cells, pool 1 (3 donors) (IL-2 2.5 ng/mL); assay: as above; conditions: 72 h
KAI3 (IL-2 2.5 ng/mL) [4] = assay: as above; conditions: 72 h
YT (IL-2 2.5 ng/mL) [5] = assay: as above; conditions: 72 h
NKL (IL-2 2.5 ng/mL) [6] = assay: as above; conditions: 72 h
NK-92 (IL-2 2.5 ng/mL) [7] = assay: as above; conditions: 72 h
DERL-7 (IL-2 2.5 ng/mL) [8] = assay: as above; conditions: 72 h
[9] = system: normal primary NK cells, pool 2 (3 donors) (IL-2 2.5 ng/mL); assay: as above; conditions: 72 h
[10] = system: normal primary NK cells, pool 3 (3 donors) (IL-2 2.5 ng/mL); assay: as above; conditions: 72 h
NK-YS (IL-2 2.5 ng/mL) [11] = assay: as above; conditions: 72 h
SNK-6 (IL-2 2.5 ng/mL) [12] = assay: as above; conditions: 72 h
KHYG-1 (IL-2 2.5 ng/mL) [13] = assay: as above; conditions: 72 h
IMC-1 (IL-2 20 ng/mL) [14] = assay: as above; conditions: 72 h
[15] = system: normal NK cells expanded with K562-aAPC; assay: as above; conditions: 72 h, IL-2 2.5 ng/mL
Procedure: as §1

[16] = system: normal primary NK cells, pool 1 (3 donors), resting (IL-2 0 ng/mL); assay: drug sensitivity score (DSS) (DSS units); higher = more sensitive; extreme values may be limits of the assay; conditions: 72 h
[17] = system: normal primary NK cells, pool 1 (3 donors) (IL-2 2.5 ng/mL); assay: as above; conditions: 72 h
KAI3 (IL-2 2.5 ng/mL) [18] = assay: as above; conditions: 72 h
YT (IL-2 2.5 ng/mL) [19] = assay: as above; conditions: 72 h
NKL (IL-2 2.5 ng/mL) [20] = assay: as above; conditions: 72 h
NK-92 (IL-2 2.5 ng/mL) [21] = assay: as above; conditions: 72 h
DERL-7 (IL-2 2.5 ng/mL) [22] = assay: as above; conditions: 72 h
[23] = system: normal primary NK cells, pool 2 (3 donors) (IL-2 2.5 ng/mL); assay: as above; conditions: 72 h
[24] = system: normal primary NK cells, pool 3 (3 donors) (IL-2 2.5 ng/mL); assay: as above; conditions: 72 h
NK-YS (IL-2 2.5 ng/mL) [25] = assay: as above; conditions: 72 h
SNK-6 (IL-2 2.5 ng/mL) [26] = assay: as above; conditions: 72 h
KHYG-1 (IL-2 2.5 ng/mL) [27] = assay: as above; conditions: 72 h
IMC-1 (IL-2 20 ng/mL) [28] = assay: as above; conditions: 72 h

Nc1nccc(-c2c(-c3ccc(F)cc3)ncn2C2CCCCC2)n1 (max concentration tested 10000 nM)
Conditions	drug sensitivity score
DERL-7 (IL-2 2.5 ng/mL) [22]	2.07
IMC-1 (IL-2 20 ng/mL) [28]	0
KAI3 (IL-2 2.5 ng/mL) [18]	25.2
KHYG-1 (IL-2 2.5 ng/mL) [27]	1.98
NK-92 (IL-2 2.5 ng/mL) [21]	6.29
NK-YS (IL-2 2.5 ng/mL) [25]	4.44
NKL (IL-2 2.5 ng/mL) [20]	0
SNK-6 (IL-2 2.5 ng/mL) [26]	4.81
YT (IL-2 2.5 ng/mL) [19]	3.49
[1]	0.68
[16]	2.37
[17]	3.09
[23]	4.42
[24]	1.17

percent inhibition of viability [%]
Conditions	1 nM	10 nM	100 nM	1000 nM	10000 nM
DERL-7 (IL-2 2.5 ng/mL) [8]	-3.56	-1.12	-1.49	5.28	29
IMC-1 (IL-2 20 ng/mL) [14]	0.25	1.14	3.57	3.69	3.74
KAI3 (IL-2 2.5 ng/mL) [4]	3.53	23.9	60.5	90.9	66.9
KHYG-1 (IL-2 2.5 ng/mL) [13]	4.98	-0.44	4.5	3.42	31.7
NK-92 (IL-2 2.5 ng/mL) [7]	4.97	-2.54	18.6	23.2	49.9
NK-YS (IL-2 2.5 ng/mL) [11]	-3.68	-2.41	3.69	14.9	47.6
NKL (IL-2 2.5 ng/mL) [6]	-2.84	0.96	7.22	-3.94	-2.33
SNK-6 (IL-2 2.5 ng/mL) [12]	-26.2	-7.24	-4.71	7.8	64.1
YT (IL-2 2.5 ng/mL) [5]	4.57	3.69	9.54	15.5	35.5
[2]	-19.6	-29.4	3.3	5.1	33.2
[3]	-3.43	-7.84	9.95	16.4	17.9
[9]	-8.96	-5.75	14	14.7	21.2
[10]	-7.45	-3.42	2.49	11.6	17
[15]	-4.54	-4.14	0.36	-0.71	21.9
